According to US9957297B2, “Template-fixed peptidomimetics as inhibitors of FPR1” (POLYPHOR AG, priority 2011, dated 2018):
Where a SMILES comes first, the peptide text is derived from it. Bridges are numbered along the chain shown (N, C = ends). [ ]: non-standard residue; d: D form.

The compounds below were run against T1, FPR1 (Homo sapiens, UniProt P21462) (assay: FPR1 β-arrestin recruitment assay (PathHunter CHO-FPR1, antagonistic mode)). Conditions: CHO FPR1 β-arrestin cells; antagonistic assay vs reference agonist fMLF at its EC80; 60 min preincubation.
T1 construct: host or cells: CHO (PathHunter CHO-FPR1 β-arrestin cells)
T1 sequence (P21462 1-350): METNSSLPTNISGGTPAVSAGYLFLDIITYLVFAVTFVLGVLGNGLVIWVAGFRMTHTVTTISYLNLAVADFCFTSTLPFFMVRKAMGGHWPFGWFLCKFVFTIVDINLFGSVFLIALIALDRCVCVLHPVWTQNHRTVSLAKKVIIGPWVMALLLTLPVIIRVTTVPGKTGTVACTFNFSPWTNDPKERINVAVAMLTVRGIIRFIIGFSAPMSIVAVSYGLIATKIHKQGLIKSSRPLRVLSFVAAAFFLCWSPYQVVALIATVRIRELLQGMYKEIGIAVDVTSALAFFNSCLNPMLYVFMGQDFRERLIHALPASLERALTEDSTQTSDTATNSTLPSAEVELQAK
Format: cell-based
Method: 2.2 FPR1 β-Arrestin Recruitment Assay
The PathHunter CHO—FPR1 (DiscoverX) assay was performed according to the manufacturer's protocol. In brief, CHO FPR1 β-arrestin cells were seeded at a density of 9000 cells per well in 20 μl of Ham's F12 medium (Invitrogen) in black 384-well culture plates and incubated overnight at 37° C. in a humidified atmosphere with 5% CO2. The next day, serial dilutions of the β-hairpin peptidomimetics of this invention have been prepared in DMSO and subsequently diluted in HBSS buffer supplemented with 20 mM Hepes and 0.1% BSA.
For antagonistic assay, 5 μl of compound solution or buffer was added to the cells with a final DMSO concentration of 0.5% (v/v). The plate was incubated for 60 min at 37° C. with 5% CO2 before addition of […] of the reference agonist fMLF peptide (Sigma-Aldrich) at its EC80 concentration. After 90 min of incubation at 37° C. with 5% CO2, 15 μl of beta-Glo detection reagent (Promega) were added. Reaction was developed for 20 min at room temperature and chemiluminescence was measured with a Victor2V (Perkin Elmer) luminescence reader.

IC50 [nM] | SMILES
124 ± 67 | CC[C@H](C)[C@@H]1NC(=O)[C@H]([C@@H](C)O)NC(=O)[C@H](Cc2c[nH]c3ccccc23)NC(=O)[C@H]2CCCN2C(=O)CNC(=O)[C@H](Cc2c[nH]cn2)NC(=O)[C@@H]2CSSC[C@H](NC1=O)C(=O)N[C@@H](Cc1ccc(O)cc1)C(=O)N[C@@H](CCC(=O)O)C(=O)N[C@@H](CCCCN)C(=O)N[C@H](CCCCN)C(=O)N[C@@H](CCC(=O)O)C(=O)N[C@@H](Cc1ccc(O)cc1)C(=O)N[C@@H](Cc1c[nH]cn1)C(=O)N[C@@H](CCCCN)C(=O)N2 [compound 5, cyclo(-Tyr-His-Lys-Cys-His-Gly-^DPro-Trp-Thr-Ile-Cys-Tyr-Glu-Lys-^DLys-Glu-)] (cyclo(YHKCHG[dP]WTICYEK[dK]E); disulfide 4-11)
126 ± 78 | CC[C@H](C)[C@@H]1NC(=O)[C@H]([C@@H](C)O)NC(=O)[C@H](Cc2c[nH]c3ccccc23)NC(=O)[C@H]2CCCN2C(=O)CNC(=O)[C@H](Cc2c[nH]c3ccccc23)NC(=O)[C@@H]2CSSC[C@H](NC1=O)C(=O)N[C@@H](Cc1ccc(O)cc1)C(=O)N[C@@H](CCC(=O)O)C(=O)N[C@@H](CCCCN)C(=O)N[C@H](C)C(=O)N1CCC[C@H]1C(=O)N[C@@H](Cc1ccc(O)cc1)C(=O)N[C@@H](Cc1c[nH]cn1)C(=O)N[C@@H](CCCCN)C(=O)N2 [compound 42, cyclo(-Tyr-His-Lys-Cys-Trp-Gly-^DPro-Trp-Thr-Ile-Cys-Tyr-Glu-Lys-^DAla-Pro-)] (cyclo(YHKCWG[dP]WTICYEK[dA]P); disulfide 4-11)
685 ± 68 | CC[C@H](C)[C@@H]1NC(=O)[C@H]([C@@H](C)O)NC(=O)[C@H](Cc2c[nH]c3ccccc23)NC(=O)[C@H]2CCCN2C(=O)CNC(=O)[C@H](Cc2c[nH]c3ccccc23)NC(=O)[C@@H]2CSSC[C@H](NC1=O)C(=O)N[C@@H]([C@@H](C)O)C(=O)N[C@@H](CCC(N)=O)C(=O)N[C@@H](CCCCN)C(=O)N1CCC[C@@H]1C(=O)N1CCC[C@H]1C(=O)N[C@@H](Cc1ccc(O)cc1)C(=O)N[C@@H](Cc1c[nH]cn1)C(=O)N[C@@H](C)C(=O)N2 [compound 34, cyclo(-Tyr-His-Ala-Cys-Trp-Gly-^DPro-Trp-Thr-Ile-Cys-Thr-Gln-Lys-^DPro-Pro-)] (cyclo(YHACWG[dP]WTICTQK[dP]P); disulfide 4-11)
77 ± 22 | CC[C@H](C)[C@@H]1NC(=O)[C@H]([C@@H](C)O)NC(=O)[C@H](Cc2c[nH]c3ccccc23)NC(=O)[C@@H](C)NC(=O)CNC(=O)[C@H](Cc2c[nH]cn2)NC(=O)[C@@H]2CSSC[C@H](NC1=O)C(=O)N[C@@H](Cc1ccc(O)cc1)C(=O)N[C@@H](CCC(=O)O)C(=O)N[C@@H](CCCCN)C(=O)N1CCC[C@@H]1C(=O)N[C@@H](CCC(=O)O)C(=O)N[C@@H](Cc1ccc(O)cc1)C(=O)N[C@@H](Cc1c[nH]cn1)C(=O)N[C@@H](CCCCN)C(=O)N2 [Ex. 4, cyclo(-Tyr-His-Lys-Cys-His-Gly-^DAla-Trp-Thr-Ile-Cys-Tyr-Glu-Lys-^DPro-Glu-)] (cyclo(YHKCHG[dA]WTICYEK[dP]E); disulfide 4-11)
54 ± 21 | CC[C@H](C)[C@@H]1NC(=O)[C@H]([C@@H](C)O)NC(=O)[C@H](Cc2c[nH]c3ccccc23)NC(=O)[C@H]2CCCN2C(=O)CNC(=O)[C@H](Cc2c[nH]c3ccccc23)NC(=O)[C@@H]2CSSC[C@H](NC1=O)C(=O)N[C@@H](Cc1ccc(O)cc1)C(=O)N[C@@H](CCC(=O)O)C(=O)N[C@@H](CCCCN)C(=O)N1CCC[C@@H]1C(=O)N1CCC[C@H]1C(=O)N[C@@H](Cc1ccc(O)cc1)C(=O)N[C@@H](Cc1c[nH]cn1)C(=O)N[C@@H](CCCCN)C(=O)N2 [compound 51, cyclo(-Tyr-His-Lys-Cys-Trp-Gly-^DPro-Trp-Thr-Ile-Cys-Tyr-Glu-Lys-^DPro-Pro-)] (cyclo(YHKCWG[dP]WTICYEK[dP]P); disulfide 4-11)
124 ± 10 | CC[C@H](C)[C@@H]1NC(=O)[C@H]([C@@H](C)O)NC(=O)[C@H](Cc2c[nH]c3ccccc23)NC(=O)[C@H]2CCCN2C(=O)CNC(=O)[C@H](Cc2c[nH]cn2)NC(=O)[C@@H]2CSSC[C@H](NC1=O)C(=O)N[C@@H](Cc1ccc(O)cc1)C(=O)N[C@@H](CCC(=O)O)C(=O)N[C@@H](CCCCN)C(=O)N[C@H](C)C(=O)N[C@@H](CCC(=O)O)C(=O)N[C@@H](Cc1ccc(O)cc1)C(=O)N[C@@H](Cc1c[nH]cn1)C(=O)N[C@@H](CCCCN)C(=O)N2 [compound 6, cyclo(-Tyr-His-Lys-Cys-His-Gly-^DPro-Trp-Thr-Ile-Cys-Tyr-Glu-Lys-^DAla-Glu-)] (cyclo(YHKCHG[dP]WTICYEK[dA]E); disulfide 4-11)
54 ± 21 | CC[C@H](C)[C@@H]1NC(=O)[C@H]([C@@H](C)O)NC(=O)[C@H](Cc2c[nH]c3ccccc23)NC(=O)[C@H]2CCCN2C(=O)CNC(=O)[C@H](Cc2c[nH]c3ccccc23)NC(=O)[C@@H]2CSSC[C@H](NC1=O)C(=O)N[C@@H](Cc1ccc(O)cc1)C(=O)N[C@@H](CCC(=O)O)C(=O)N[C@@H](CCCCN)C(=O)N1CCC[C@@H]1C(=O)N[C@@H](CCCCN)C(=O)N[C@@H](Cc1ccc(O)cc1)C(=O)N[C@@H](Cc1c[nH]cn1)C(=O)N[C@@H](CCCCN)C(=O)N2 [compound 87, cyclo(-Tyr-His-Lys-Cys-Trp-Gly-^DPro-Trp-Thr-Ile-Cys-Tyr-Glu-Lys-^DPro-Lys-)] (cyclo(YHKCWG[dP]WTICYEK[dP]K); disulfide 4-11)
177 ± 121 | CC[C@H](C)[C@@H]1NC(=O)[C@H]([C@@H](C)O)NC(=O)[C@H](Cc2c[nH]c3ccccc23)NC(=O)[C@H]2CCCN2C(=O)CNC(=O)[C@H](Cc2c[nH]cn2)NC(=O)[C@@H]2CSSC[C@H](NC1=O)C(=O)N[C@@H](Cc1ccc(O)cc1)C(=O)N[C@@H](CCC(N)=O)C(=O)N[C@@H](CCCCN)C(=O)N1CCC[C@@H]1C(=O)N1CCC[C@H]1C(=O)N[C@@H](Cc1ccc(O)cc1)C(=O)N[C@@H](Cc1c[nH]cn1)C(=O)N[C@@H](Cc1c[nH]c3ccccc13)C(=O)N2 [Ex. 11, cyclo(-Tyr-His-Trp-Cys-His-Gly-^DPro-Trp-Thr-Ile-Cys-Tyr-Gln-Lys-^DPro-Pro-)] (cyclo(YHWCHG[dP]WTICYQK[dP]P); disulfide 4-11)
189 ± 79 | CC[C@H](C)[C@@H]1NC(=O)[C@H]([C@@H](C)O)NC(=O)[C@H](Cc2c[nH]c3ccccc23)NC(=O)[C@H]2CCCN2C(=O)CNC(=O)[C@H](Cc2c[nH]cn2)NC(=O)[C@@H]2CSSC[C@H](NC1=O)C(=O)N[C@@H](Cc1ccc(O)cc1)C(=O)N[C@@H](CCC(=O)O)C(=O)N[C@@H](CCCCN)C(=O)N1CCC[C@@H]1C(=O)N1CCC[C@H]1C(=O)N[C@@H](Cc1ccc(O)cc1)C(=O)N[C@@H](Cc1c[nH]cn1)C(=O)N[C@@H](C)C(=O)N2 [compound 30, cyclo(-Tyr-His-Ala-Cys-His-Gly-^DPro-Trp-Thr-Ile-Cys-Tyr-Glu-Lys-^DPro-Pro-)] (cyclo(YHACHG[dP]WTICYEK[dP]P); disulfide 4-11)
177 ± 28 | CC[C@H](C)[C@@H]1NC(=O)[C@H]([C@@H](C)O)NC(=O)[C@H](Cc2c[nH]c3ccccc23)NC(=O)[C@H]2CCCN2C(=O)CNC(=O)[C@H](Cc2c[nH]cn2)NC(=O)[C@@H]2CSSC[C@H](NC1=O)C(=O)N[C@@H](Cc1ccc(O)cc1)C(=O)N[C@@H](CCC(=O)O)C(=O)N[C@@H](CCCCN)C(=O)N1CCC[C@@H]1C(=O)N1CCC[C@H]1C(=O)N[C@@H](CC(=O)O)C(=O)N[C@@H](Cc1c[nH]cn1)C(=O)N[C@@H](CCCCN)C(=O)N2 [compound 66, cyclo(-Asp-His-Lys-Cys-His-Gly-^DPro-Trp-Thr-Ile-Cys-Tyr-Glu-Lys-^DPro-Pro-)] (cyclo(DHKCHG[dP]WTICYEK[dP]P); disulfide 4-11)
77 ± 4 | CC[C@H](C)[C@@H]1NC(=O)[C@H]([C@@H](C)O)NC(=O)[C@H](Cc2c[nH]c3ccccc23)NC(=O)[C@@H](C)NC(=O)CNC(=O)[C@H](Cc2c[nH]cn2)NC(=O)[C@@H]2CSSC[C@H](NC1=O)C(=O)N[C@@H](Cc1ccc(O)cc1)C(=O)N[C@@H](CCC(=O)O)C(=O)N[C@@H](CCCCN)C(=O)N1CCC[C@@H]1C(=O)N1CCC[C@H]1C(=O)N[C@@H](Cc1ccc(O)cc1)C(=O)N[C@@H](Cc1c[nH]cn1)C(=O)N[C@@H](CCCCN)C(=O)N2 [compound 71, cyclo(-Tyr-His-Lys-Cys-His-Gly-^DAla-Trp-Thr-Ile-Cys-Tyr-Glu-Lys-^DPro-Pro-)] (cyclo(YHKCHG[dA]WTICYEK[dP]P); disulfide 4-11)
96 ± 30 | CC[C@H](C)[C@@H]1NC(=O)[C@H]([C@@H](C)O)NC(=O)[C@H](Cc2c[nH]c3ccccc23)NC(=O)[C@H]2CCCN2C(=O)CNC(=O)[C@H](Cc2c[nH]c3ccccc23)NC(=O)[C@@H]2CSSC[C@H](NC1=O)C(=O)N[C@@H](Cc1ccc(O)cc1)C(=O)N[C@@H](CCC(N)=O)C(=O)N[C@@H](CCCCN)C(=O)N1CCC[C@@H]1C(=O)N1CCC[C@H]1C(=O)N[C@@H](Cc1ccc(O)cc1)C(=O)N[C@@H](Cc1c[nH]cn1)C(=O)N[C@@H](C)C(=O)N2 [Ex. 40, cyclo(-Tyr-His-Ala-Cys-Trp-Gly-^DPro-Trp-Thr-Ile-Cys-Tyr-Gln-Lys-^DPro-Pro-)] (cyclo(YHACWG[dP]WTICYQK[dP]P); disulfide 4-11)
